Patent US20090105327A1, “Dibenzocycloheptane compounds and pharmaceuticals containing these compounds” (Merckle GMBH, priority 2005, published 2009)

What was measured:
IL-1β = assay: tissue or blood; details: Homo sapiens, 4 h, read-out: Inhibition of IL-1β (whole blood) IC50
Procedure: (§1) The compounds or compositions of the invention can be administered to a mammal (human or animal) in a dose of about 0.5 mg to 100 mg per kg of body weight per day. They can be given in a single dose or in a plurality of doses. […] Pharm. Pharm. Med. Chem. 333, Suppl. 1, 1-40, 2000.
(§2) In Vitro Test Method with Human Whole Blood
(§3) Samples of human potassium EDTA whole blood (400 μl each) are mixed with the test substance and preincubated at 37° C. in a CO2 incubator (5% CO2; 95% moisture-saturated air) for 15 min. The samples are then stimulated with 1 μg/ml LPS (E. coli 026:B6) in a CO2 incubator (5% CO2; 95% moisture-saturated air) at 37° C. for 4 hours. The reaction is stopped by placing the samples on ice, adding DPBS buffer and subsequently centrifuging at 1000.g for 15 min. The amount of IL-1β and TNFα in the plasma supernatant is then measured by means of an ELISA.

TNF-α = assay: tissue or blood; details: Homo sapiens, 4 h, read-out: Inhibition of TNF-α (whole blood) IC50
Procedure: as §1, §2, §3

activated p38α = activated p38α (Homo sapiens, UniProt Q16539); assay: Kinase assay (p38 MAP kinase assay), ATF2 phosphorylation ELISA; type: biochemical; details: 100 μM ATP, 10 ng activated p38α, ATF2 substrate; read-out: Inhibition of p 38 MAP kinase assay IC50
Procedure: Kinase Assay (p38 MAP Kinase Assay)
Microtiter plates were coated with 50 μl of ATF2 solution (20 μg/ml) at 37° C. for one hour. After washing with water three times, 50 μl of kinase mixture (50 mM tris-HCl 10 mM MgCl2, 10 mM β-glycerol phosphate, 10 μg/ml BSA, 1 mM DTT, 100 μM ATP, 100 μM Na3VO4, 10 ng of activated p38α) with or without inhibitor were put into the wells and incubated at 37° C. for 1 hour. After washing three times, the plates were incubated with […] at 37° C. for one hour. After washing again three times, a goat anti-rabbit IgG labeled with alkaline phosphatase was added at 37° C. for one hour (in order to retain the antibody phosphorylated protein-substrate complex). After washing three times, the alkaline phosphatase substrate solution (3 mM 4-NPP, 50 mM NaHCO3, 50 mM MgCl2, 100 μl/well) was added at 37° C. for 1.5 hours. […] The IC50 values are calculated.

activated p38α, sequence (Q16539 whole entry): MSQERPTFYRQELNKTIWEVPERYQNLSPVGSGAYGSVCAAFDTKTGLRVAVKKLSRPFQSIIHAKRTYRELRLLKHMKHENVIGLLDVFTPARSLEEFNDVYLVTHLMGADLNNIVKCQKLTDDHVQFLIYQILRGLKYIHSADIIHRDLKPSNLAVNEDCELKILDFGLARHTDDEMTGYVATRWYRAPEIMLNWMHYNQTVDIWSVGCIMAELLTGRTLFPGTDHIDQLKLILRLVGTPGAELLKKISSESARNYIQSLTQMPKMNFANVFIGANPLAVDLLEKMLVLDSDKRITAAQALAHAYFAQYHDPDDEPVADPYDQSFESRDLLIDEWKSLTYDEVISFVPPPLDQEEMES

| Compound | IC50 (IL-1β) | IC50 (TNF-α) | IC50 (activated p38α) | melting point |
| --- | --- | --- | --- | --- |
| Nc1ccccc1Nc1ccc2c(c1)OCc1ccccc1C2=O [Example 5, 3-(2-Aminoanilino)-6,11-dihydrodibenzo[b,e]oxepin-11-one] |  |  | 300 nM |  |
| 3-(2-Amino-4-fluorophenylamino)-6,11-dihydrodibenzo[b,e]oxepin-11-one [Example 24] |  |  | 38 nM |  |
| Nc1ccccc1Nc1ccc2c(c1)SCc1ccccc1C2=O [Example 4, 3-(2-Aminoanilino)-6,11-dihydrodibenzo[b,e]thiepin-11-one] |  |  | 1100 nM |  |

Other lines, results leading:

| IC50 (IL-1β) | IC50 (TNF-α) | IC50 (activated p38α) | melting point | Compound |
| --- | --- | --- | --- | --- |
| 1800 nM | 2300 nM |  |  | Nc1ccccc1Nc1ccc2c(c1)CCc1ccccc1C2=O [Example 25, 2-(2-Aminophenylamino)-10,11-dihydrodibenzo[a,d]cycloheptan-5-one] |
|  |  | 159 nM | 52.5 °C | COc1ccccc1Nc1ccc2c(c1)CCc1ccccc1C2=O [Example 28, 2-(2-Methoxyphenylamino)-10,11-dihydrodibenzo[a,d]cyclohepten-5-one] |
